Reference: patent publication US8338443B2, “Chemical compounds” (priority 2006, dated 2012)

Assays:
Spodoptera littoralis = Spodoptera littoralis (Egyptian cotton leafworm) cotton leaf disc spray test; assay type: in vivo; conditions: foliar, 72 h, 200 ppm spray on cotton leaf discs, L1 larvae, mortality, repellent effect, feeding behaviour, growth regulation 3 DAT
Description: Spodoptera littoralis (Egyptian Cotton Leafworm)
Cotton leaf discs were placed on agar in a 24-well microtiter plate and sprayed with test solutions at an application rate of 200 ppm. After drying, the leaf discs were infested with 5 L1 larvae. The samples were checked for mortality, repellent effect, feeding behaviour, and growth regulation 3 days after treatment (DAT). The following compounds gave at least 80% control of Spodoptera littoralis: I-3, II-3, II-7, V-3, XXVII-3, XXVIII-3, XXIX-3, XXXI-3.

Aedes aegypti = Aedes aegypti (yellow fever mosquito) larvae test; assay type: in vivo; conditions: 48 h, L2 larvae in 96-well plates, 2 days, mortality and growth inhibition
Description: Aedes aegypti (Yellow Fever Mosquito):
10-15 Aedes larvae (L2) together with a nutrition mixture are placed in 96-well microtiter plates. Test solutions at an application rate of 2 ppm are pipetted into the wells. 2 days later, insects were checked for mortality and growth inhibition. The following compounds gave at least 80% control of Aedes aegypti: I-3, II-3, II-7, V-3, XXVII-3, XXVIII-3, XXIX-3, XXXI-3.

Compound | pest or weed control at 200 ppm (Spodoptera littoralis) [%] | pest or weed control at 2 ppm (Aedes aegypti) [%]
O=C(Nc1ccc2cccnc2c1C1CCN(C/C=C/c2ccc(Cl)cc2)CC1)c1ccnc(Cl)c1 [Compound I-3] | ≥ 80 | ≥ 80
O=C(Nc1ccc2ncsc2c1C1CCN(C/C=C/c2ccc(Cl)cc2)CC1)c1ccnc(Cl)c1 [Compound V-3] | ≥ 80 | ≥ 80
O=C(Nc1ccc2scnc2c1C1CCN(C/C=C/c2ccc(Cl)cc2)CC1)c1ccnc(Cl)c1 [II-3, 2-Chloro-N-(4-{1-[(E)-3-(4-chloro-phenyl)-allyl]-piperidin-4-yl}-benzothiazol-5-yl)-isonicotinamide] | ≥ 80 | ≥ 80
O=C(Nc1ccc2scnc2c1C1CCN(C/C=C/c2ccc(OC(F)(F)F)cc2)CC1)c1ccnc(Cl)c1 [II-7] | ≥ 80 | ≥ 80
O=C(Nc1ccc2cccnc2c1C1=CCN(C/C=C/c2ccc(Cl)cc2)CC1)c1ccnc(Cl)c1 [XXIX-3] | ≥ 80 | ≥ 80
O=C(Nc1ccc2cn[nH]c2c1C1CCN(C/C=C/c2ccc(Cl)cc2)CC1)c1ccnc(Cl)c1 [XXVII-3] | ≥ 80 | ≥ 80
O=C(Nc1ccc2nccnc2c1C1CCN(C/C=C/c2ccc(Cl)cc2)CC1)c1ccnc(Cl)c1 [XXVIII-3] | ≥ 80 | ≥ 80
Cc1nc2c(C3=CCN(C/C=C/c4ccc(Cl)cc4)CC3)c(NC(=O)c3ccnc(Cl)c3)ccc2s1 [XXXI-3] | ≥ 80 | ≥ 80
